Experiment in all cases: growth of human tumour cells (NCI), 48 h
In assay [1] the test system is HOP-18 NSCLC.
The test system of assay [2] is SNB-75 CNS.
Assay [3] has as its system ACHN renal.
Assay [4] has as its system OVCAR-4 ovarian.
Assay [5] concerns OVCAR-8 ovarian.
Assay [6] concerns KM20L2 colon.
Assay [7] deals with HCC-2998 colon.
For assay [8], the system named is UACC-257 melanoma.
In assay [9] the test system is RPMI-8226 leukemia.
Assay [10] relates to SNB-78 CNS.
For assay [11], the system named is M19-MEL melanoma.
Assay [12] has as its system PC-3 prostate.

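A five-concentration, 48-hour dose response in 96-well plates underlies each endpoint, interpolated linearly between surrounding concentrations. At the TGI there is no net growth.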 A value given as a limit tells only on which side of the number the result lay.

With `O=C(O)C(CS)N=c1c2ccccc2n(O)c2ccccc12` (stereo not given), the TGI in assay [1], in [2], in [3], in assay [4], in assay [5] and in assay [6] was greater than 100 µM in each case. The TGI in assay [7], in [8], in [9], in assay [10] and in [11] was greater than 100 µM throughout.

In the case of `COC1(OC)CCCCC2c3cccc(OC(C)=O)c3C21OC(C)=O` (stereo not given), the TGI in [1], in [2], in assay [3], in [4], in assay [5] and in assay [7] was greater than 100 µM in each case. Besides, the TGI in assay [8], in assay [9], in [10] and in assay [11] was greater than 100 µM each time.

For the compound `COC(=O)C1CC2(c3ccccc3)C(=O)c3ccccc3N2O1` (stereo not given), the TGI in [1], in assay [2], in assay [3], in [4], in [5] and in assay [6] was greater than 100 µM in each case. Moreover, the TGI in [7] was greater than 100 µM; in assay [8], greater than 100 µM; in assay [9] it was 57 µM; in assay [10] it was greater than 100 µM; in assay [11] it was greater than 100 µM.

Turning to `COC(=O)/C=C/c1cc(OC)c(OC)c(OC)c1`, the TGI in assay [1], in [2], in [3], in assay [4], in assay [5] and in assay [6] was greater than 100 µM each time. Besides, the TGI in assay [7], in assay [8] and in assay [11] was greater than 100 µM each time.

For the compound `C=CCOCCCCC(C(C)=O)C(=O)OC` (stereo not given), the TGI in assay [1], in assay [2], in [3], in assay [4], in assay [5] and in assay [6] was greater than 100 µM throughout. The TGI in [7], in assay [8], in assay [9], in [10] and in [11] was greater than 100 µM each time.

For the compound `O=C(CC1=NCCN1)c1ccccc1`, the TGI in assay [1], in [2], in assay [4], in assay [5], in assay [6] and in assay [7] was greater than 750 µM in each case. In addition, the TGI in assay [8], in assay [9], in assay [10] and in [11] was greater than 750 µM in each case.

As to `O=C(N/N=C/c1cc(Br)cc(Br)c1[O-])c1ccccc1O.O=C(N/N=C/c1cc(Br)cc(Br)c1[O-])c1ccccc1O.[Fe+2]`, the TGI was 27.7 µM in assay [2]; 21.1 µM in assay [3]; 18.4 µM in assay [4]; 36.1 µM in [5]; 17.4 µM in [6]; 12.5 µM in assay [7].

`O=C(O)C(CO)NC(=O)n1c2ccccc2c2ccccc21` (stereo not given): the TGI in [1], in [3], in [5], in [7], in assay [8] and in [9] was greater than 100 µM in each case. The compound also returned a TGI in assay [11] greater than 100 µM.

In the case of `O=C1C(Cl)N(c2ccccc2[N+](=O)[O-])C1c1c[nH]c2ccccc12` (stereo not given), the TGI in assay [2], in assay [4], in assay [5], in [6], in assay [8] and in [9] was greater than 100 µM in each case. In assay [11], the TGI is greater than 100 µM.

As to `O=C1NC2OC(CO)C(O)C(O1)C2O` (stereo not given), the TGI in [1], in assay [2], in [3], in assay [4], in [5] and in [6] was greater than 100 µM throughout. For the same compound, the TGI in [8], in assay [9], in assay [10] and in [11] was greater than 100 µM in each case.

As for `CCN1CCC(O)(C(C(=O)O)c2ccccc2)CC1` (stereo not given), the TGI in assay [2], in assay [12], in assay [3], in [4], in assay [5] and in assay [7] was greater than 100 µM throughout. The TGI in [8] and in assay [9] was greater than 100 µM each time.

Turning to `CCOC(=O)C(NC(=O)CC(C)C)(N1CCN(c2cc3c(cc2F)c(=O)c(C(=O)O)cn3C2CC2)CC1)C(F)(F)F` (stereo not given), the TGI in assay [2] is 64.5 µM; in assay [12] it was 63.7 µM; in assay [3], 34.6 µM; in [4], 68 µM; in assay [5] it was greater than 100 µM; in [7], 28.4 µM. Also, the results for the TGI in assay [8] and in assay [9] were 57 µM and 78.6 µM, respectively.

For `CCOC(=O)C(CC#Cc1ccc(C#CCC(NC(C)=O)C(=O)OCC)cc1)NC(C)=O` (stereo not given), the TGI in assay [2], in [12], in assay [3], in [4], in [5] and in assay [7] was greater than 100 µM in each case. For the same compound, the TGI in assay [8] and in assay [9] was greater than 100 µM each time.

For `NC(N)=NS(=O)(=O)c1ccc(NC(=O)c2ccc3nc4ccccc4c(Nc4ccc(S(=O)(=O)N=C(N)N)cc4)c3c2)cc1`, the TGI in assay [2], in assay [12], in assay [3], in assay [4], in assay [5] and in assay [7] was greater than 100 µM in each case. Also, the TGI in assay [8] and in assay [9] was greater than 100 µM each time.

Consider `COC(=O)c1ccc(C=Nc2ccc(S(N)(=O)=O)cc2)cc1`, for which the TGI in assay [2], in [12], in assay [3], in [4], in [5] and in assay [7] was greater than 100 µM throughout. The TGI in assay [8] was greater than 100 µM; in assay [9] it was 86.2 µM.

As for `COc1c(Br)cc(CC(N)=O)c(O)c1Br`, the TGI in assay [1], in assay [2], in assay [3], in assay [4], in assay [5] and in [6] was greater than 100 µM in each case. Further, the TGI in [7], in [8], in assay [10] and in [11] was greater than 100 µM in each case.

For `COC(=O)C1=Nc2c(C)nn(-c3ccccc3)c2N=C(c2ccc([N+](=O)[O-])cc2)C1`, the TGI in assay [2], in assay [12], in [3], in assay [4], in assay [5] and in assay [7] was greater than 10 µM each time. Besides, the TGI in assay [8] and in assay [9] was greater than 10 µM each time.

With `Brc1ccc2c(-c3csc(-c4c[nH]c5cc(Br)ccc45)n3)c[nH]c2c1`, the TGI in assay [2] is 66.1 µM; in [12], greater than 79.5 µM; in assay [3], greater than 100 µM; in [4], 97.7 µM; in [5], greater than 57.1 µM; in [7], greater than 100 µM. In addition, the TGI in [8] and in [9] was greater than 100 µM throughout.

Consider `NC(N)=Nc1ncccc1[N+](=O)[O-]`, for which the TGI in [1] was greater than 100 µM; in assay [2] it was greater than 100 µM; in assay [4], greater than 100 µM; in assay [5], greater than 100 µM; in assay [6], 70.2 µM; in assay [7] it was greater than 100 µM. Besides, the results for the TGI in assay [8], in assay [9] and in assay [10] were greater than 31.6 µM, greater than 100 µM and greater than 100 µM, respectively.

In the case of `Brc1cc2nn(-c3ccccc3)nc2c2nonc12`, the TGI in [2], in assay [12], in assay [3], in assay [4], in assay [5] and in assay [7] was greater than 100 µM in each case. The TGI in [8] and in [9] was greater than 100 µM each time.

The values above are taken from PubChem BioAssay (NCI).
